How the values were obtained:
[1] = Area under the plasma concentration curve was determined at 0-6 hours in rat after ~2 mg/kg oral dosage; n=2
[2] = Bioavailability in rat after 4-10 mg/kg oral dosage; n=3; assay type: ADME, organism-based; settings: in vivo
[3] = target: T1, C-C chemokine receptor type 5 (Homo sapiens, UniProt P51681); test: Displacement of [125I]-MIP-1 alpha from human C-C chemokine receptor type 5 expressed in CHO cells; assay type: cell-based
[4] = In vitro intrinsic clearance against rat hepatocytes
[5] = Clearance in rat after 1 mg/kg i.v. dosage; n=3; settings: in vivo, iv
[6] = target: T1, C-C chemokine receptor type 5; test: Inhibition of MIP-1beta stimulated calcium transients in CCR5-expressing CHO cells; assay type: functional, cell-based
[7] = Ability to inhibit the chemotaxis of human AlloT cells in response to MIP-1beta; assay type: functional, cell-based

T1 sequence (P51681 whole entry): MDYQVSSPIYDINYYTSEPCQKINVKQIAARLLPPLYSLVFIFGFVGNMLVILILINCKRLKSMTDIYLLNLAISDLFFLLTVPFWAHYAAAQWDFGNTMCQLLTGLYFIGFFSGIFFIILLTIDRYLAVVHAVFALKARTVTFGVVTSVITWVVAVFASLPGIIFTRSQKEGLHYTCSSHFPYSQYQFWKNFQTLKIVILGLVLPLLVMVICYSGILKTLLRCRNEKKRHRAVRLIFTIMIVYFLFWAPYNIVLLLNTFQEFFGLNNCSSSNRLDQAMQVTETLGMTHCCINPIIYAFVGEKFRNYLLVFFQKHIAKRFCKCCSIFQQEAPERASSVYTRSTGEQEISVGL

Structure (SMILES)	IC50 [3] [nM]	also measured
C=CCN(C(=O)Cc1ccc(S(C)(=O)=O)cc1)C1CCN(CCC(c2ccccc2)c2ccccc2)CC1	13	AUC at 6 h [1]: 0.132 µM·h; bioavailability [2]: 11%; Clint [4]: 54 uL/min/10e6 cells; clearance [5]: 54 mL/min/kg
CS(=O)(=O)c1ccc(CC(=O)N(C2CC2)C2CCN(CCC(c3ccccc3)c3ccccc3)CC2)cc1	32	
CCN(C(=O)Cc1ccc(S(C)(=O)=O)cc1)C1CCN(CCC(c2ccccc2)c2ccc(C(F)(F)F)cc2)CC1 (stereo not given)	2.3	Clint [4]: 37 uL/min/10e6 cells
CCN(C(=O)Cc1ccc(S(C)(=O)=O)cc1)C1CCN(CCC(c2ccccc2)c2ccc(C(=O)OC)cc2)CC1 (stereo not given)	7.1	Clint [4]: > 150 uL/min/10e6 cells
CCN(C(=O)Cc1ccc(S(C)(=O)=O)cc1)C1CCN(CCC(c2ccccc2)c2ccc(C)cc2)CC1 (stereo not given)	28	
CCN(C(=O)Cc1ccc(S(C)(=O)=O)cc1)C1CCN(CCC(c2ccccc2)c2cccc(Cl)c2)CC1 (stereo not given)	58	
CCN(C(=O)Cc1ccc(S(C)(=O)=O)cc1)C1CCN(CCC(c2ccccc2)c2ccc(NS(C)(=O)=O)cc2)CC1 (stereo not given)	18	IC50 [6]: 24 nM; IC50 [7]: 31 nM
CCN(C(=O)Cc1ccc(S(C)(=O)=O)cc1)C1CCN(CCC(c2ccccc2)c2ccc(Cl)cc2)CC1 (stereo not given)	8.5	bioavailability [2]: 3%; Clint [4]: 34 uL/min/10e6 cells; clearance [5]: 46 mL/min/kg
CCN(C(=O)Cc1ccc(S(C)(=O)=O)cc1)C1CCN(CCC(c2ccccc2)c2ccc(NC(C)=O)cc2)CC1 (stereo not given)	26	
CCN(C(=O)Cc1ccc(S(C)(=O)=O)cc1)C1CCN(CCC(c2ccccc2)c2ccc(C#N)cc2)CC1 (stereo not given)	< 1	
CCN(C(=O)Cc1ccc(S(C)(=O)=O)cc1)C1CCN(CCC(c2ccccc2)c2ccc(C(N)=O)cc2)CC1 (stereo not given)	260	
CCN(C(=O)Cc1ccc(S(C)(=O)=O)cc1)C1CCN(CCC(c2ccccc2)c2ccc(NS(=O)(=O)c3ccccc3)cc2)CC1 (stereo not given)	740	
CCN(C(=O)Cc1ccc(S(C)(=O)=O)cc1)C1CCN(CCC(c2ccccc2)c2ccc(NC(=O)Cc3ccccc3)cc2)CC1 (stereo not given)	5.9	AUC at 6 h [1]: 0.012 µM·h
CCN(C(=O)Cc1ccc(S(C)(=O)=O)cc1)C1CCN(CCC(c2ccccc2)c2ccc(NC(=O)c3ccccc3)cc2)CC1 (stereo not given)	130	
CCN(C(=O)Cc1ccc(S(C)(=O)=O)cc1)C1CCN(CCC(c2ccc(F)cc2)c2ccc(F)cc2)CC1	780	AUC at 6 h [1]: 1.87 µM·h; bioavailability [2]: 56%; Clint [4]: 4 uL/min/10e6 cells; clearance [5]: 10 mL/min/kg
CCN(C(=O)Cc1ccc(S(C)(=O)=O)cc1)C1CCN(CCC(c2ccccc2)c2ccc(F)cc2)CC1 (stereo not given)	310	
CCN(C(=O)Cc1ccc(S(C)(=O)=O)cc1)C1CCN(CCC(c2ccc(NC(=O)OC(C)(C)C)cc2)c2cccc(F)c2)CC1 (stereo not given)	89	
CCN(C(=O)Cc1ccc(S(C)(=O)=O)cc1)C1CCN(CCC(c2ccccc2)c2ccccc2)CC1	18	
CCN(C(=O)Cc1ccc(S(C)(=O)=O)cc1)C1CCN(CCC(c2ccccc2)c2ccc(N)cc2)CC1 (stereo not given)	200	
CCN(C(=O)Cc1ccc(S(C)(=O)=O)cc1)C1CCN(CCC(c2ccccc2)c2ccc(NC(=O)C(C)(C)C)cc2)CC1 (stereo not given)	22	
CCN(C(=O)Cc1ccc(S(C)(=O)=O)cc1)C1CCN(CCC(c2ccc(NC(C)=O)cc2)c2cccc(F)c2)CC1 (stereo not given)	7.9	AUC at 6 h [1]: 0.008 µM·h; Clint [4]: 17 uL/min/10e6 cells
CCN(C(=O)Cc1ccc(S(C)(=O)=O)cc1)C1CCN(CCC(c2ccc(Cl)cc2)c2cccc(F)c2)CC1 (stereo not given)	19	
CCN(C(=O)Cc1ccc(S(C)(=O)=O)cc1)C1CCN(CCC(c2ccccc2)c2ccc(OC)cc2)CC1 (stereo not given)	6.3	Clint [4]: 41 uL/min/10e6 cells
CCN(C(=O)Cc1ccc(S(C)(=O)=O)cc1)C1CCN(CCC(c2ccccc2)c2ccc(Cl)c(Cl)c2)CC1 (stereo not given)	78	
CCN(C(=O)Cc1ccc(S(C)(=O)=O)cc1)C1CCN(CCC(c2ccccc2)c2ccc(SC)cc2)CC1 (stereo not given)	12	
CCN(C(=O)Cc1ccc(S(C)(=O)=O)cc1)C1CCN(CCC(c2ccccc2)c2ccc(-c3ccccc3)cc2)CC1 (stereo not given)	85	
CCN(C(=O)Cc1ccc(S(C)(=O)=O)cc1)C1CCN(CCC(c2ccccc2)c2ccc(NS(=O)(=O)Cc3ccccc3)cc2)CC1 (stereo not given)	11	
CCN(C(=O)Cc1ccc(S(C)(=O)=O)cc1)C1CCN(CCC(c2ccc(Cl)cc2)c2ccc(Cl)cc2)CC1	760	
CCN(C(=O)Cc1ccc(S(C)(=O)=O)cc1)C1CCN(CCC(c2ccc(NS(C)(=O)=O)cc2)c2cccc(F)c2)CC1 (stereo not given)		AUC at 6 h [1]: 0.002 µM·h; Clint [4]: 15 uL/min/10e6 cells
CCN(C(=O)Cc1ccc(S(C)(=O)=O)cc1)C1CCN(CCC(c2ccccc2)c2ccc(NC(=O)OC(C)(C)C)cc2)CC1 (stereo not given)	200	

Reference: ChEMBL document CHEMBL1143640, “Modulators of the human CCR5 receptor. Part 2: SAR of substituted 1-(3,3-diphenylpropyl)-piperidinyl phenylacetamides” (Bioorg Med Chem Lett, 2005)
